Reference: ChEMBL document CHEMBL3259800, “Design, synthesis and biological evaluation of novel 4-alkapolyenylpyrrolo[1,2-a]quinoxalines as antileishmanial agents--part III” (Eur J Med Chem, 2014)

Tested on: Leishmania major
Test: Antimicrobial activity against Leishmania major MHOM/IL/81/BNI promastigotes after 96 hrs by resazurin-based assay
Format: functional, organism-based
Settings: not given

Row | SMILES | IC50
1 | C/C=C/C=C/c1nc2ccccc2n2cccc12 | 4.7 µM
2 | C/C=C/C=C/c1nc2cc(OC)ccc2n2cccc12 | 3 µM
3 | C/C=C/C=C/c1nc2ccc(OC)cc2n2cccc12 | 2.7 µM
4 | C/C=C/C=C/c1nc2cccc(OC)c2n2cccc12 | 3.3 µM
5 | CCC/C=C/C=C/c1nc2ccccc2n2cccc12 | 3.9 µM
6 | CCC/C=C/C=C/c1nc2cc(OC)ccc2n2cccc12 | 2.8 µM
7 | CCC/C=C/C=C/c1nc2ccc(OC)cc2n2cccc12 | 7.4 µM
8 | CCC/C=C/C=C/c1nc2cccc(OC)c2n2cccc12 | 3.9 µM

Tested on: not listed separately
Test: Cytotoxicity against mouse J774A1 cells after 72 hrs by MTT assay
Format: cell-based, J774.A1
Settings: not given

Row | SMILES | CC50 at 72 h
9 | C/C=C/C=C/c1nc2ccccc2n2cccc12 | 4.3 µM
10 | C/C=C/C=C/c1nc2cc(OC)ccc2n2cccc12 | 2.5 µM
11 | C/C=C/C=C/c1nc2ccc(OC)cc2n2cccc12 | 5.3 µM
12 | C/C=C/C=C/c1nc2cccc(OC)c2n2cccc12 | 2.7 µM
13 | CCC/C=C/C=C/c1nc2ccccc2n2cccc12 | 4.7 µM
14 | CCC/C=C/C=C/c1nc2cc(OC)ccc2n2cccc12 | 6.5 µM
15 | CCC/C=C/C=C/c1nc2ccc(OC)cc2n2cccc12 | 7.8 µM
16 | CCC/C=C/C=C/c1nc2cccc(OC)c2n2cccc12 | 7.1 µM

Tested on: not listed separately
Test: Selectivity index, ratio of CC50 for human HepG2 cells to IC50 for Leishmania donovani MHOM/IN/00/DEVI promastigotes
Format: functional
Settings: not given

Row | SMILES | Ratio CC50/IC50
17 | C/C=C/C=C/c1nc2ccccc2n2cccc12 | 1.1
18 | C/C=C/C=C/c1nc2cc(OC)ccc2n2cccc12 | 1.1
19 | C/C=C/C=C/c1nc2ccc(OC)cc2n2cccc12 | 1.6
20 | C/C=C/C=C/c1nc2cccc(OC)c2n2cccc12 | 0.9
21 | CCC/C=C/C=C/c1nc2ccccc2n2cccc12 | 1.2
22 | CCC/C=C/C=C/c1nc2cc(OC)ccc2n2cccc12 | 1
23 | CCC/C=C/C=C/c1nc2ccc(OC)cc2n2cccc12 | 2.6
24 | CCC/C=C/C=C/c1nc2cccc(OC)c2n2cccc12 | 1.8

Tested on: not listed separately
Test: Selectivity index, ratio of CC50 for mouse J774A1 cells to IC50 for Leishmania donovani MHOM/IN/00/DEVI promastigotes
Format: functional, J774.A1
Settings: not given

Row | SMILES | Ratio CC50/IC50
25 | C/C=C/C=C/c1nc2ccccc2n2cccc12 | 0.4
26 | C/C=C/C=C/c1nc2cc(OC)ccc2n2cccc12 | 0.5
27 | C/C=C/C=C/c1nc2ccc(OC)cc2n2cccc12 | 1
28 | C/C=C/C=C/c1nc2cccc(OC)c2n2cccc12 | 0.4
29 | CCC/C=C/C=C/c1nc2ccccc2n2cccc12 | 0.6
30 | CCC/C=C/C=C/c1nc2cc(OC)ccc2n2cccc12 | 0.8
31 | CCC/C=C/C=C/c1nc2ccc(OC)cc2n2cccc12 | 1
32 | CCC/C=C/C=C/c1nc2cccc(OC)c2n2cccc12 | 0.7

Tested on: not listed separately
Test: Selectivity index, ratio of CC50 for mouse J774A1 cells to IC50 for Leishmania major MHOM/IL/81/BNI promastigotes
Format: functional, J774.A1
Settings: not given

Row | SMILES | Ratio CC50/IC50
33 | C/C=C/C=C/c1nc2ccccc2n2cccc12 | 0.9
34 | C/C=C/C=C/c1nc2cc(OC)ccc2n2cccc12 | 0.8
35 | C/C=C/C=C/c1nc2ccc(OC)cc2n2cccc12 | 2
36 | C/C=C/C=C/c1nc2cccc(OC)c2n2cccc12 | 0.8
37 | CCC/C=C/C=C/c1nc2ccccc2n2cccc12 | 1.2
38 | CCC/C=C/C=C/c1nc2cc(OC)ccc2n2cccc12 | 2.3
39 | CCC/C=C/C=C/c1nc2ccc(OC)cc2n2cccc12 | 1.1
40 | CCC/C=C/C=C/c1nc2cccc(OC)c2n2cccc12 | 1.8

Tested on: not listed separately
Test: Selectivity index, ratio of CC50 for human HepG2 cells to IC50 for chloroquine and mefloquine-sensitive Plasmodium falciparum 3D7
Format: functional
Settings: not given

Row | SMILES | Ratio CC50/IC50
41 | C/C=C/C=C/c1nc2ccccc2n2cccc12 | 4.3
42 | C/C=C/C=C/c1nc2cc(OC)ccc2n2cccc12 | 1.8
43 | C/C=C/C=C/c1nc2ccc(OC)cc2n2cccc12 | 5.8
44 | C/C=C/C=C/c1nc2cccc(OC)c2n2cccc12 | 2
45 | CCC/C=C/C=C/c1nc2ccccc2n2cccc12 | 3.7
46 | CCC/C=C/C=C/c1nc2cc(OC)ccc2n2cccc12 | 3.8
47 | CCC/C=C/C=C/c1nc2ccc(OC)cc2n2cccc12 | 6.1
48 | CCC/C=C/C=C/c1nc2cccc(OC)c2n2cccc12 | 10.9

Tested on: not listed separately
Test: Selectivity index, ratio of CC50 for human HepG2 cells to IC50 for Trypanosoma brucei brucei Antat 1.1
Format: functional
Settings: not given

Row | SMILES | Ratio CC50/IC50
49 | C/C=C/C=C/c1nc2ccccc2n2cccc12 | 4.3
50 | C/C=C/C=C/c1nc2cc(OC)ccc2n2cccc12 | 2.8
51 | C/C=C/C=C/c1nc2ccc(OC)cc2n2cccc12 | 4.8
52 | C/C=C/C=C/c1nc2cccc(OC)c2n2cccc12 | 2.9
53 | CCC/C=C/C=C/c1nc2cc(OC)ccc2n2cccc12 | 4.6

Tested on: not listed separately
Test: Cytotoxicity against human HepG2 cells after 72 hrs by MTT assay
Format: cell-based
Settings: not given

Row | SMILES | CC50 at 72 h
54 | C/C=C/C=C/c1nc2ccccc2n2cccc12 | 10.3 µM
55 | C/C=C/C=C/c1nc2cc(OC)ccc2n2cccc12 | 5.8 µM
56 | C/C=C/C=C/c1nc2ccc(OC)cc2n2cccc12 | 8.7 µM
57 | C/C=C/C=C/c1nc2cccc(OC)c2n2cccc12 | 6.5 µM
58 | CCC/C=C/C=C/c1nc2ccccc2n2cccc12 | 9.3 µM
59 | CCC/C=C/C=C/c1nc2cc(OC)ccc2n2cccc12 | 8.8 µM
60 | CCC/C=C/C=C/c1nc2ccc(OC)cc2n2cccc12 | 20.1 µM
61 | CCC/C=C/C=C/c1nc2cccc(OC)c2n2cccc12 | 17.4 µM

Tested on: not listed separately
Test: Selectivity index, ratio of CC50 for human HepG2 cells to IC50 for Leishmania major MHOM/IL/81/BNI promastigotes
Format: functional
Settings: not given

Row | SMILES | Ratio CC50/IC50
62 | C/C=C/C=C/c1nc2ccccc2n2cccc12 | 2.2
63 | C/C=C/C=C/c1nc2cc(OC)ccc2n2cccc12 | 1.9
64 | C/C=C/C=C/c1nc2ccc(OC)cc2n2cccc12 | 3.2
65 | C/C=C/C=C/c1nc2cccc(OC)c2n2cccc12 | 2
66 | CCC/C=C/C=C/c1nc2ccccc2n2cccc12 | 2.4
67 | CCC/C=C/C=C/c1nc2cc(OC)ccc2n2cccc12 | 3.1
68 | CCC/C=C/C=C/c1nc2ccc(OC)cc2n2cccc12 | 2.7
69 | CCC/C=C/C=C/c1nc2cccc(OC)c2n2cccc12 | 4.5

Tested on: not listed separately
Test: Selectivity index, ratio of CC50 for mouse J774A1 cells to IC50 for Leishmania mexicana MHOM/MX/95/NAN1 promastigotes
Format: functional, J774.A1
Settings: not given

Row | SMILES | Ratio CC50/IC50
70 | C/C=C/C=C/c1nc2ccccc2n2cccc12 | 0.6
71 | C/C=C/C=C/c1nc2cc(OC)ccc2n2cccc12 | 0.8
72 | C/C=C/C=C/c1nc2ccc(OC)cc2n2cccc12 | 1.4
73 | C/C=C/C=C/c1nc2cccc(OC)c2n2cccc12 | 0.3
74 | CCC/C=C/C=C/c1nc2ccccc2n2cccc12 | 0.4
75 | CCC/C=C/C=C/c1nc2cc(OC)ccc2n2cccc12 | 2
76 | CCC/C=C/C=C/c1nc2ccc(OC)cc2n2cccc12 | 1.5
77 | CCC/C=C/C=C/c1nc2cccc(OC)c2n2cccc12 | 0.7

Tested on: not listed separately
Test: Selectivity index, ratio of CC50 for human HepG2 cells to IC50 for chloroquine-resistant and mefloquine-sensitive Plasmodium falciparum W2
Format: functional
Settings: not given

Row | SMILES | Ratio CC50/IC50
78 | C/C=C/C=C/c1nc2ccccc2n2cccc12 | 4.1
79 | C/C=C/C=C/c1nc2cc(OC)ccc2n2cccc12 | 1.7
80 | C/C=C/C=C/c1nc2ccc(OC)cc2n2cccc12 | 3.6
81 | C/C=C/C=C/c1nc2cccc(OC)c2n2cccc12 | 2.5
82 | CCC/C=C/C=C/c1nc2ccccc2n2cccc12 | 8.5
83 | CCC/C=C/C=C/c1nc2cc(OC)ccc2n2cccc12 | 11
84 | CCC/C=C/C=C/c1nc2ccc(OC)cc2n2cccc12 | 1.8
85 | CCC/C=C/C=C/c1nc2cccc(OC)c2n2cccc12 | 13.4

Tested on: not listed separately
Test: Selectivity index, ratio of CC50 for human HepG2 cells to IC50 for Leishmania mexicana MHOM/MX/95/NAN1 promastigotes
Format: functional
Settings: not given

Row | SMILES | Ratio CC50/IC50
86 | C/C=C/C=C/c1nc2ccccc2n2cccc12 | 1.4
87 | C/C=C/C=C/c1nc2cc(OC)ccc2n2cccc12 | 1.8
88 | C/C=C/C=C/c1nc2ccc(OC)cc2n2cccc12 | 2.4
89 | C/C=C/C=C/c1nc2cccc(OC)c2n2cccc12 | 0.8
90 | CCC/C=C/C=C/c1nc2ccccc2n2cccc12 | 0.8
91 | CCC/C=C/C=C/c1nc2cc(OC)ccc2n2cccc12 | 2.8
92 | CCC/C=C/C=C/c1nc2ccc(OC)cc2n2cccc12 | 4
93 | CCC/C=C/C=C/c1nc2cccc(OC)c2n2cccc12 | 1.7

Tested on: Plasmodium falciparum
Test: Antimicrobial activity against chloroquine and mefloquine-sensitive Plasmodium falciparum 3D7 infected in human erythrocytes after 48 hrs by SYBR Green I assay
Format: functional, organism-based
Settings: 3D7, 48 h

Row | SMILES | IC50
94 | C/C=C/C=C/c1nc2ccccc2n2cccc12 | 2.4 µM
95 | C/C=C/C=C/c1nc2cc(OC)ccc2n2cccc12 | 3.3 µM
96 | C/C=C/C=C/c1nc2ccc(OC)cc2n2cccc12 | 1.5 µM
97 | C/C=C/C=C/c1nc2cccc(OC)c2n2cccc12 | 3.2 µM
98 | CCC/C=C/C=C/c1nc2ccccc2n2cccc12 | 2.5 µM
99 | CCC/C=C/C=C/c1nc2cc(OC)ccc2n2cccc12 | 2.3 µM
100 | CCC/C=C/C=C/c1nc2ccc(OC)cc2n2cccc12 | 3.3 µM
101 | CCC/C=C/C=C/c1nc2cccc(OC)c2n2cccc12 | 1.6 µM

Tested on: Leishmania mexicana
Test: Antimicrobial activity against Leishmania mexicana MHOM/MX/95/NAN1 promastigotes after 96 hrs by resazurin-based assay
Format: functional, organism-based
Settings: MHOM/MX/95/NAN1, 96 h

Row | SMILES | IC50
102 | C/C=C/C=C/c1nc2ccccc2n2cccc12 | 7.6 µM
103 | C/C=C/C=C/c1nc2cc(OC)ccc2n2cccc12 | 3.3 µM
104 | C/C=C/C=C/c1nc2ccc(OC)cc2n2cccc12 | 3.7 µM
105 | C/C=C/C=C/c1nc2cccc(OC)c2n2cccc12 | 8 µM
106 | CCC/C=C/C=C/c1nc2ccccc2n2cccc12 | 12.1 µM
107 | CCC/C=C/C=C/c1nc2cc(OC)ccc2n2cccc12 | 3.2 µM
108 | CCC/C=C/C=C/c1nc2ccc(OC)cc2n2cccc12 | 5.1 µM
109 | CCC/C=C/C=C/c1nc2cccc(OC)c2n2cccc12 | 10.3 µM

Tested on: Plasmodium falciparum
Test: Antimicrobial activity against chloroquine-resistant and mefloquine-sensitive Plasmodium falciparum W2 infected in human erythrocytes after 48 hrs by SYBR Green I assay
Format: functional, organism-based
Settings: W2, 48 h

Row | SMILES | IC50
110 | C/C=C/C=C/c1nc2ccccc2n2cccc12 | 2.5 µM
111 | C/C=C/C=C/c1nc2cc(OC)ccc2n2cccc12 | 3.4 µM
112 | C/C=C/C=C/c1nc2ccc(OC)cc2n2cccc12 | 2.4 µM
113 | C/C=C/C=C/c1nc2cccc(OC)c2n2cccc12 | 2.6 µM
114 | CCC/C=C/C=C/c1nc2ccccc2n2cccc12 | 1.1 µM
115 | CCC/C=C/C=C/c1nc2cc(OC)ccc2n2cccc12 | 0.8 µM
116 | CCC/C=C/C=C/c1nc2ccc(OC)cc2n2cccc12 | 11 µM
117 | CCC/C=C/C=C/c1nc2cccc(OC)c2n2cccc12 | 1.3 µM

Tested on: Leishmania donovani
Test: Antimicrobial activity against Leishmania donovani MHOM/IN/00/DEVI promastigotes after 72 hrs by MTT assay
Format: functional, organism-based
Settings: not given

Row | SMILES | IC50
118 | C/C=C/C=C/c1nc2ccccc2n2cccc12 | 9.8 µM
119 | C/C=C/C=C/c1nc2cc(OC)ccc2n2cccc12 | 5.3 µM
120 | C/C=C/C=C/c1nc2ccc(OC)cc2n2cccc12 | 5.4 µM
121 | C/C=C/C=C/c1nc2cccc(OC)c2n2cccc12 | 7.2 µM
122 | CCC/C=C/C=C/c1nc2ccccc2n2cccc12 | 7.6 µM
123 | CCC/C=C/C=C/c1nc2cc(OC)ccc2n2cccc12 | 8.6 µM
124 | CCC/C=C/C=C/c1nc2ccc(OC)cc2n2cccc12 | 7.6 µM
125 | CCC/C=C/C=C/c1nc2cccc(OC)c2n2cccc12 | 9.9 µM

Tested on: Trypanosoma brucei brucei
Test: Antimicrobial activity against Trypanosoma brucei brucei Antat 1.1 after 24 hrs by haemocytometric analysis
Format: functional, organism-based
Settings: Antat 1.1, 24 h

Row | SMILES | IC50
126 | C/C=C/C=C/c1nc2ccccc2n2cccc12 | 2.4 µM
127 | C/C=C/C=C/c1nc2cc(OC)ccc2n2cccc12 | 2.1 µM
128 | C/C=C/C=C/c1nc2ccc(OC)cc2n2cccc12 | 1.8 µM
129 | C/C=C/C=C/c1nc2cccc(OC)c2n2cccc12 | 2.2 µM
130 | CCC/C=C/C=C/c1nc2cc(OC)ccc2n2cccc12 | 1.9 µM
